Data published in US20250360185A1, “COMPOSITIONS COMPRISING PEDF-DERIVED SHORT PEPTIDES FOR THE TREATMENT OF DRY EYE DISEASES” (BRIM Biotechnology, Inc., priority 2022, published 2025).
Entries after “also recorded” stand apart in the source; their conditions may differ.

What was measured:
Type in all cases: in vivo, human
[1] = system: subjects with DED; test: Corneal damage repair assessed with fluorescein staining, clinical study
Protocol: (§1) A multi-center, randomized, double masked, placebo controlled clinical study was conducted to assess the safety and efficacy of BRM421 ophthalmic solution (OS) in subjects with DED using a controlled adverse environment (CAE®) model (Ora, Inc., Andover, MA, USA). CAE® uses controlled ocular surface stress to exacerbate the signs and symptoms of DED in a safe and controllable manner.
(§2) During the first visit (Day-7±1), the subjects were screened, evaluated before CAE®, exposed to CAE®, evaluated after CAE®, and started with the placebo run-in period (7±1 days). During the 7-day study run-in period (for the purpose of subject selection) prior to randomization, all subjects received Placebo OS bilaterally, three times daily (TID). During the second visit, subjects were evaluated before CAE®, exposed to CAE®, and evaluated after CAE®. These evaluations formed the baseline measurements. The subjects were then randomized into two groups to receive either BRM421 ophthalmic solution (OS) or Placebo OS (Vehicle) bilaterally three times daily (TID) for 14 days from Visit 2 to Visit 4.
Severe dry eye cases can lead to cornea damages, which can be assessed with fluorescein staining. PDSP of the invention can treat DED. In addition, these PDSP can also repair corneal damages. […] The selective efficacies of BRM421 treatment in cataract patients are unexpected.

[2] = system: subjects with DED; test: Ora Ocular Discomfort & 4-Symptom Questionnaire (ODS) diary, clinical study with CAE model; conditions: for Diary Dryness Change from Baseline, ANCOVA LS Mean (SE) / Diary Dryness Change from Baseline, Mean (SD) / Diary Burning Change from Baseline, ANCOVA LS Mean (SE) / Diary Ocular Discomfort Change from Baseline, ANCOVA LS Mean (SE) / Diary Burning Change from Baseline, Mean (SD) / Diary Ocular Discomfort Change from Baseline, Mean (SD): ITT observed data; for Diary Dryness Change from Baseline, Mean (SD) / Diary Burning Change from Baseline, Mean (SD) / Diary Ocular Discomfort Change from Baseline, Mean (SD): score 0 = None to 5 = Worst
Protocol: as §1, §2
Subjects were also asked to grade the severity of their dry eye disease symptoms in their diary in the morning and in the evening before instilling the study drug. The Ora Ocular Discomfort & 4-Symptom Questionnaire (ODS Questionnaire) was used, which included rating the severity of 5 symptoms: ocular discomfort, burning, dryness, grittiness, and stinging. Each symptom rating ranged from 0 to 5, where 0=None and 5=Worst.

[3] = system: subjects with DED; test: Visual analog scale (VAS) ocular symptom ratings, clinical study with CAE model; conditions: DED and cataract, with or without cataract surgery
Protocol: as §1, §2
During these visits, subjects were evaluated for symptom efficacy. Specifically, visual analog scale (VAS) was measured by asking subjects to rate each ocular symptom due to ocular dryness. Symptoms assessed include burning/stinging, itching, foreign body sensation, blurred vision, eye dryness, photophobia, and pain.

[4] = Day 1 to Day 7, morning, pre-CAE baseline
[5] = Day 8 to 15, Evening, score 0-5
[6] = Day 8 to 15, Morning, score 0-5

SLGAEQRTESIIHRALYYDLISSPDIHGT (listed as Homo sapiens) [BRM421, PEDF-derived short peptide, 29mer, residues 93-121; tested as BRM421 ophthalmic solution (OS)]
Corneal damage repair compared to placebo (FIG. 5D) ([1]; patients with cataract and surgery): slight improvements | Corneal damage repair compared to placebo (FIG. 5C) ([1]; patients with cataract but without surgery): significant improvements; also recorded: more significant | Corneal damage repair compared to placebo (FIG. 5B) ([1]; subjects with cataract): significant improvements | Corneal damage repair (FIG. 5A) ([1]; subjects without cataract): did not show significant improvements | Diary Dryness Change from Baseline, ANCOVA LS Mean (SE) ([2]; Day 1 to 7, Evening, score 0-5): −0.243 (0.0484) | Diary Dryness Change from Baseline, Mean (SD) ([2]; Day 1 to 7, Evening): −0.241 (0.5137) | Diary Dryness Change from Baseline, ANCOVA LS Mean Difference (SE), BRM421 OS − Placebo ([2]; Day 1 to 7, Evening, score 0-5): −0.145 (0.0671) | Diary Dryness Change from Baseline, Two-Sample t-test Mean Difference (SE), BRM421 OS − Placebo ([2]; Day 1 to 7, Evening, score 0-5): −0.140 (0.0673) | Diary Burning Change from Baseline, ANCOVA LS Mean (SE) ([2]; Day 1 to 7, Morning, score 0-5): −0.254 (0.0528) | Diary Ocular Discomfort Change from Baseline, ANCOVA LS Mean (SE) ([2]; Day 1 to 7, Morning, score 0-5): −0.138 (0.0518) | Diary Burning Change from Baseline, Mean (SD) ([2]; Day 1 to 7, Morning): −0.256 (0.5580) | Diary Ocular Discomfort Change from Baseline, Mean (SD) ([2]; Day 1 to 7, Morning): −0.149 (0.5064) | Diary Burning Change from Baseline, ANCOVA LS Mean Difference (SE), BRM421 OS − Placebo ([2]; Day 1 to 7, Morning, score 0-5): −0.173 (0.0731) | Diary Burning Change from Baseline, Two-Sample t-test Sample Mean Difference (SE), BRM421 OS − Placebo ([2]; Day 1 to 7, Morning, score 0-5): −0.172 (0.0742) | Diary Ocular Discomfort Change from Baseline, ANCOVA LS Mean Difference (SE), BRM421 OS − Placebo ([2]; Day 1 to 7, Morning, score 0-5): −0.146 (0.0717) | Diary Ocular Discomfort Change from Baseline, Two-Sample t-test Sample Mean Difference (SE), BRM421 OS − Placebo ([2]; Day 1 to 7, Morning, score 0-5): −0.152 (0.0727) | Diary ocular discomfort and burning improvement from baseline compared to placebo ([2]; Day 1 to Day 7, evening): not significant in the evening | Diary dryness improvement from baseline compared to placebo (FIG. 3A) ([2]; Day 1 to Day 7, evening, pre-CAE baseline): significantly better improvement | Diary dryness improvement from baseline compared to placebo (FIG. 3A) [2, 4]: not significantly better in the morning | Diary ocular discomfort and burning improvement from baseline compared to placebo [2, 4]: significantly better improvements | Diary Dryness Change from Baseline, ANCOVA LS Mean (SE) [2, 5]: −0.377 (0.0651) | Diary Dryness Change from Baseline, Mean (SD) ([2]; Day 8 to 15, Evening): −0.382 (0.6917) | Diary Dryness Change from Baseline, ANCOVA LS Mean Difference (SE), BRM421 OS − Placebo [2, 5]: −0.036 (0.0901) | Diary Dryness Change from Baseline, Two-Sample t-test Sample Mean Difference (SE), BRM421 OS − Placebo [2, 5]: −0.029 (0.0915) | Diary Burning Change from Baseline, ANCOVA LS Mean (SE) [2, 6]: −0.313 (0.0640) | Diary Ocular Discomfort Change from Baseline, ANCOVA LS Mean (SE) [2, 6]: −0.223 (0.0656) | Diary Burning Change from Baseline, Mean (SD) ([2]; Day 8 to 15, Morning): −0.332 (0.7199) | Diary Ocular Discomfort Change from Baseline, Mean (SD) ([2]; Day 8 to 15, Morning): −0.248 (0.6696) | Diary Burning Change from Baseline, ANCOVA LS Mean Difference (SE), BRM421 OS − Placebo [2, 6]: −0.048 (0.0884) | Diary Burning Change from Baseline, Two-Sample t-test Sample Mean Difference (SE), BRM421 OS − Placebo [2, 6]: −0.048 (0.0939) | Diary Ocular Discomfort Change from Baseline, ANCOVA LS Mean Difference (SE), BRM421 OS − Placebo [2, 6]: −0.049 (0.0906) | Diary Ocular Discomfort Change from Baseline, Two-Sample t-test Sample Mean Difference (SE), BRM421 OS − Placebo [2, 6]: −0.058 (0.0936) | ODS dryness versus placebo (FIG. 3B) ([2]; Visit 3, both pre-CAE and post-CAE evaluations as baselines): no significant difference | ODS burning and ODS stinging versus placebo (FIG. 3B) ([2]; Visit 3, post-CAE evaluations): significant effects | VAS burning/stinging compared to placebo (FIG. 4C, FIG. 4D) [3]: significant improvements
